Consider five molecules from patent publication US20090317326A1, “RADIOFLUORINATION METHODS” (priority 2007, published 2009).

Where two headings read alike, the source gives them in different places. Starred links: 1 amine or outer side, 2 acyl side, 3 side chain; linkers in the order of their positions; H or OH if unused. Non-standard residues stand in square brackets, D forms with d. Residues, ends and D or L forms follow the SMILES beside them. *: point of attachment. γ4hIle = CC[C@H](C)[C@@H](CCC(=O)[*:2])N[*:1]; Benzoyl(3-CN,4-F) = N#Cc1cc(C(=O)*)ccc1F; Ava = NCCCCC(=O)O Bounds are passed on as bounds.

The test system of data set [1] is human prostate cancer PC-3. Particulars: mouse, in vivo.
Description: (§1) Nude mice bearing human prostate cancer PC-3 were injected with 100 μl radioactive peptide dissolved in PBS containing 135 kBq per animal. For blocking 100 μg unlabeled gastrin-releasing peptide was co-injected. One hour post injection the animals were sacrificed and organs dissected for counting in a gamma-counter. Values are expressed as percent of the injected dose per gram organ weight.
Data set [2] concerns human prostate cancer PC-3. Put plainly: Biodistribution of F-18 bombesin analogs in nude mice bearing human prostate cancer PC-3. As to conditions: for Blocking: protocol as above (100 μg unlabeled gastrin-releasing peptide co-injected).
Description: as §1
Assay in data set [3]: as above
As to conditions: nude, mouse, 135 kBq per animal, total radioactivity.
Description: as §1

For data set [4], the system named is tumor. Particulars: FIG. 5; versus tumor-tissue ratio of 18F-choline (FCH) and 18F-FB-Lys-BN.

Turning to “3-CN,4-F-Benzoyl-Arg-Ava-Gln-Trp-Ala-Val-NMeGly-His-Sta-Leu-NH2 (RXQWAVGHXL; N-methyl; non-natural residues)”, in data set [1], the “Panc. % ID/g” value was 1.3 % ID/g, the T/B came to 6.82 and the T/M is listed as 12.75. In addition, in data set [2] (Table 1), the Blocking is given as 40-70%.
“3-CN,4-F-Benzoyl-Arg-Ava-Gln-Trp-Ala-Val-Gly-His(3Me)-Sta-Leu-NH2 (RXQWAVGHXL; non-natural residues)”: in data set [1], the “Panc. % ID/g” value came out at 4.16 % ID/g, the T/B came to 5.65 and the T/M is 13.84. Also, the Blocking in data set [2] (Table 1) is listed as 30-90%.
Consider “3-CF3,4-F-Benzoyl-Arg-Ava-Gln-Trp-Ala-Val-NMeGly-His-Sta-Leu-NH2 (RXQWAVGHXL; N-methyl; non-natural residues)”, for which, in data set [1], the “Panc. % ID/g” value was 1.42 % ID/g, the T/B was 4.56 and the T/M is given as 25.3. In data set [2] (Table 1), this molecule had a Blocking greater than 70%.
In data set [2] (Table 1), `CC[C@H](C)[C@@H](CCC(=O)N[C@@H](CC(C)C)C(N)=O)NC(=O)[C@H](Cc1c[nH]cn1)NC(=O)CNC(=O)[C@@H](NC(=O)[C@H](C)NC(=O)[C@H](Cc1c[nH]c2ccccc12)NC(=O)[C@H](CCC(N)=O)NC(=O)CCCCNC(=O)c1ccc(F)c(C#N)c1)C(C)C` [3-CN,4-F-Bz-Ava-Gln-Trp-Ala-Val-Gly-His-FA01010-Leu-NH2] ({Benzoyl(3-CN,4-F)-Ava}-QWAVGH[γ4hIle]L-NH2) returned a Blocking greater than 70%. In data set [2] (Table 1, tumor/blood ratio), the T/B was determined as 21.03. Besides, in data set [2] (Table 1, tumor/muscle ratio), the T/M is listed as 59.99. The “specificity of targeting (blocking)” value in data set [2] (blocking values low in tumor, unchanged for the other tissue) was “specific”. For the same molecule, the accumulation in tumor entry in data set [2] (conclusion from biodistribution, 1 h) is recorded as “accumulates in tumor”. The tissue uptake (usually the percentage of the injected dose found per gram of tissue) at 1 h is 0.05 ± 0.01 %ID/g in data set [3] (blood); 0.24 ± 0.02 %ID/g in data set [3] (kidneys); 0.35 ± 0.13 %ID/g in data set [3] (liver); 0.02 %ID/g in data set [3] (muscle); 0.34 ± 0.03 %ID/g in data set [3] (pancreas); 1 ± 0.01 %ID/g in data set [3] (tumor). Moreover, the tissue to tissue ratio at 1 h was determined as 21 ± 11.9 in data set [3] (tumor/blood) and 60 ± 29.5 in data set [3] (tumor/muscle). Also, the “tumor-tissue ratio relative to 18F-choline (FCH) and 18F-FB-Lys-BN” value in data set [4] is listed as 2.5 time higher.
With “4F,3CN-Bnz-Arg-Ava-Gln-Trp-Ala-Val-NMeGly-His(3Me)-Sta-Leu-NH2 (RXQWAVGHXL; N-methyl; non-natural residues)”, in data set [1], the “Panc. % ID/g” value was 3.51 % ID/g, the T/B was 2.57 and the T/M was 16.77. Besides, in data set [2] (Table 1), the Blocking is reported as 50-80%.
